Measured values: article doi:10.1101/2024.10.14.618300v1 (biorxiv, 2024)

Legend:
[1] = molecular target: T1, mTSPO (recombinant mouse translocator protein) (Mus musculus, UniProt P50637); assay: […] NMR chemical shift titration; assay type: binding
[2] = molecular target: T1, mTSPO (recombinant mouse translocator protein); assay: […] NMR competition with RF3458; assay type: binding

| Kd [1] [µM] | Ki [2] [µM] | Compound |
| --- | --- | --- |
| ~5 | – | CN(C(=O)[C@H](Cc1ccc(F)cc1)NC(=O)c1ccccc1)c1ccccc1 [4b, RF3458] |
| – | ~90 | CC[C@@H](C)N(C)C(=O)c1cc2ccccc2c(-c2ccccc2Cl)n1 [(R)-PK 11195, 1-(2-Chlorophenyl)-N-methyl-N-(1-methylpropyl)-3-isoquinolinecarboxamide] |
